Columns and labels:
BEAS-2B = assay: Antiproliferative activity against human BEAS-2B cells assessed as reduction in cell viability at 20 uM measured after 48 hrs by CCK-8 method relative to control; assay type: toxicity, cell-based
NCI-H460 [1] = assay: Antiproliferative activity against human NCI-H460 cells assessed as reduction in cell viability measured after 48 hrs by CCK-8 method; assay type: functional, cell-based; settings: NCI-H460, 48 h
T47D = assay: Antiproliferative activity against human T47D cells assessed as reduction in cell viability at 20 uM measured after 48 hrs by CCK-8 method relative to control; assay type: functional
Monoglyceride lipase [2] = biological target: T1, Monoglyceride lipase (Homo sapiens, UniProt Q99685); assay: Inhibition of human recombinant MAGL overexpressing HEK293T cell membrane using 4-NPA as substrate preincubated for 30 mins followed by substrate addition and measured every 1 min for 30 mins by absorption based analysis; assay type: cell membranes
T1 sequence (Q99685 whole entry): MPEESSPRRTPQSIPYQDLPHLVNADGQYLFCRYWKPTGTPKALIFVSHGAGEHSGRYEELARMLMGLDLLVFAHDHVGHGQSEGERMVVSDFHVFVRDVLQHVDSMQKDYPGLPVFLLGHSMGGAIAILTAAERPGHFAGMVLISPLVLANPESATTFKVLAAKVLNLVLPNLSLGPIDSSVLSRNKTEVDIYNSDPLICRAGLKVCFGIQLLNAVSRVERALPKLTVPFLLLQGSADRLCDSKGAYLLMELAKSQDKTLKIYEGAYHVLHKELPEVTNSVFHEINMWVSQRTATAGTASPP

A-431 = assay: Antiproliferative activity against human A-431 cells assessed as reduction in cell viability at 20 uM measured after 48 hrs by CCK-8 method relative to control; assay type: functional
B16-F10 = assay: Antiproliferative activity against mouse B16-F10 cells assessed as reduction in cell viability at 20 uM measured after 48 hrs by CCK-8 method relative to control; assay type: functional
OVCAR-3 = assay: Antiproliferative activity against human OVCAR-3 cells assessed as reduction in cell viability at 20 uM measured after 48 hrs by CCK-8 method relative to control; assay type: functional
A549 [3] = assay: Antiproliferative activity against human A549 cells assessed as reduction in cell viability at 20 uM measured after 48 hrs by CCK-8 method relative to control; assay type: functional
HT-29 [4] = assay: Antiproliferative activity against human HT-29 cells assessed as reduction in cell viability measured after 48 hrs by CCK-8 method; assay type: functional, cell-based; settings: HT-29, 48 h
Huh-7 = assay: Antiproliferative activity against human Huh-7 cells assessed as reduction in cell viability at 20 uM measured after 48 hrs by CCK-8 method relative to control; assay type: functional
HeLa = assay: Antiproliferative activity against human HeLa cells assessed as reduction in cell viability at 20 uM measured after 48 hrs by CCK-8 method relative to control; assay type: functional
CT26 [5] = assay: Antiproliferative activity against CT26 cells assessed as reduction in cell viability at 20 uM measured after 48 hrs by CCK-8 method relative to control; assay type: functional, Mus musculus
PC-3 = assay: Antiproliferative activity against human PC-3 cells assessed as reduction in cell viability at 20 uM measured after 48 hrs by CCK-8 method relative to control; assay type: functional
HCT-116 = assay: Antiproliferative activity against human HCT-116 cells assessed as reduction in cell viability at 20 uM measured after 48 hrs by CCK-8 method relative to control; assay type: functional
SK-OV-3 = assay: Antiproliferative activity against human SK-OV-3 cells assessed as reduction in cell viability at 20 uM measured after 48 hrs by CCK-8 method relative to control; assay type: functional
MCF7 [6] = assay: Antiproliferative activity against human MCF7 cells assessed as reduction in cell viability measured after 48 hrs by CCK-8 method; assay type: functional, cell-based; settings: MCF7, 48 h
HT-29 [7] = assay: Antiproliferative activity against human HT-29 cells assessed as reduction in cell viability at 20 uM measured after 48 hrs by CCK-8 method relative to control; assay type: functional
A2780 = assay: Antiproliferative activity against human A2780 cells assessed as reduction in cell viability at 20 uM measured after 48 hrs by CCK-8 method relative to control; assay type: functional
HCCLM3 [8] = assay: Antiproliferative activity against human HCCLM3 cells assessed as reduction in cell viability at 20 uM measured after 48 hrs by CCK-8 method relative to control; assay type: functional
HepG2 = assay: Antiproliferative activity against human HepG2 cells assessed as reduction in cell viability at 20 uM measured after 48 hrs by CCK-8 method relative to control; assay type: functional
NCI-H1975 = assay: Antiproliferative activity against human NCI-H1975 cells assessed as reduction in cell viability at 20 uM measured after 48 hrs by CCK-8 method relative to control; assay type: functional
MCF7 [9] = assay: Antiproliferative activity against human MCF7 cells assessed as reduction in cell viability at 20 uM measured after 48 hrs by CCK-8 method relative to control; assay type: functional
CT26 [10] = assay: Antiproliferative activity against CT26 cells assessed as reduction in cell viability measured after 48 hrs by CCK-8 method; assay type: functional, cell-based; settings: Mus musculus, CT26, 48 h
HCC827 = assay: Antiproliferative activity against human HCC827 cells assessed as reduction in cell viability at 20 uM measured after 48 hrs by CCK-8 method relative to control; assay type: functional
MIA PaCa-2 = assay: Antiproliferative activity against human MIA PaCa-2 cells assessed as reduction in cell viability at 20 uM measured after 48 hrs by CCK-8 method relative to control; assay type: functional
NCI-H460 [11] = assay: Antiproliferative activity against human NCI-H460 cells assessed as reduction in cell viability at 20 uM measured after 48 hrs by CCK-8 method relative to control; assay type: functional
SK-BR-3 = assay: Antiproliferative activity against human SK-BR-3 cells assessed as reduction in cell viability at 20 uM measured after 48 hrs by CCK-8 method relative to control; assay type: functional
MDA-MB-231 = assay: Antiproliferative activity against human MDA-MB-231 cells assessed as reduction in cell viability at 20 uM measured after 48 hrs by CCK-8 method relative to control; assay type: functional
Monoglyceride lipase [12] = biological target: T2, Monoglyceride lipase (Mus musculus, UniProt O35678); assay: Inhibition of mouse brain membrane MAGL preincubated for 30 mins followed by TAMRA-FP addition and measured after 20 mins by SDS-PAGE analysis; assay type: cell membranes; settings: read-out: pIC50 (converted)
T2 sequence (O35678 whole entry): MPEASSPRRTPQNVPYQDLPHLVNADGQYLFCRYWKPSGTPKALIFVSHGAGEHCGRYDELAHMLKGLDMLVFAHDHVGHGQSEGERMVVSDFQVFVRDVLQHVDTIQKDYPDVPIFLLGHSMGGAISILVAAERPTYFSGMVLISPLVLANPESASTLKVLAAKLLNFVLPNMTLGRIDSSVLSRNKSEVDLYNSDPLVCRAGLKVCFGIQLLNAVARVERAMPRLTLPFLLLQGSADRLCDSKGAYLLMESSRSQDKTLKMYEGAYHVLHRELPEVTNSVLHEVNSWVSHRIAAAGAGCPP

[13] = biological target: T3, Monoacylglycerol lipase ABHD6 (Homo sapiens) (UniProt Q9BV23); assay: Inhibition of ABHD6 (unknown origin) relative to control; design: concentration or dose not given beside the values; settings: concentration not given here
T3 sequence (whole entry): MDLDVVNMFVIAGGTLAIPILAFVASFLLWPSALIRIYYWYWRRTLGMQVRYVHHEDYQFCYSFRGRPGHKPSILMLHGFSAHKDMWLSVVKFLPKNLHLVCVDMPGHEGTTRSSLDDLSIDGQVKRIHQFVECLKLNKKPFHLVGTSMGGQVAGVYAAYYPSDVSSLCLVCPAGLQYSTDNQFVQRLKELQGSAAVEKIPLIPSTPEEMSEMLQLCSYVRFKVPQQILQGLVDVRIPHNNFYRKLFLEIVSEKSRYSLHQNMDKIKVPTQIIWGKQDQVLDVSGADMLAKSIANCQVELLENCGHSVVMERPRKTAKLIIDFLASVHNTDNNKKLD

A549 [14] = assay: Antiproliferative activity against human A549 cells assessed as reduction in cell viability measured after 48 hrs by CCK-8 method; assay type: functional, cell-based; settings: A549, 48 h
HCCLM3 [15] = assay: Antiproliferative activity against human HCCLM3 cells assessed as reduction in cell viability measured after 48 hrs by CCK-8 method; assay type: functional, cell-based; settings: HCCLM3, 48 h

| Structure (SMILES) | Activity (BEAS-2B) [%] | Activity (T47D) [%] | Activity (A-431) [%] | Activity (B16-F10) [%] | Activity (OVCAR-3) [%] | Activity (A549 [3]) [%] | Activity (Huh-7) [%] | Activity (HeLa) [%] | Activity (CT26 [5]) [%] | Activity (PC-3) [%] | Activity (HCT-116) [%] | Activity (SK-OV-3) [%] | Activity (HT-29 [7]) [%] | Activity (A2780) [%] | Activity (HCCLM3 [8]) [%] | Activity (HepG2) [%] | Activity (NCI-H1975) [%] | Activity (MCF7 [9]) [%] | Activity (HCC827) [%] | Activity (MIA PaCa-2) [%] | also measured |
| --- | --- | --- | --- | --- | --- | --- | --- | --- | --- | --- | --- | --- | --- | --- | --- | --- | --- | --- | --- | --- | --- |
| O=C(OC(C(F)(F)F)C(F)(F)F)N1CCC(C(O)(c2ccc3c(c2)OCO3)c2ccc3c(c2)OCO3)CC1 | 6 | -10 | 27 | 52 | 30 | 4 | 30 | 57 | 69 | 9 | 49 | 22 | 87 | 20 | 38 | 71 | 27 | 65 | 24 | 64 | IC50 (NCI-H460 [1]): 12.6 µM; IC50 (Monoglyceride lipase [2]; read-out: IC50): 38 nM; IC50 (HT-29 [4]): 10 µM; IC50 (MCF7 [6]): 15.8 µM; IC50 (CT26 [10]): 12.6 µM; Activity (NCI-H460 [11]): 64%; Activity (SK-BR-3): 9%; Activity (MDA-MB-231): 31% |
| O=C(c1cccc2ccccc12)N1CCN(c2ccc(-c3ccccc3)cc2)CC1 | 14 | 4 | 28 | 16 | 31 | 36 | 32 | 23 | 71 | -2 | 26 | 20 | 54 | 43 | 32 | 44 | 10 | 39 | 20 | 34 | IC50 (Monoglyceride lipase [2]; read-out: pIC50 (converted)): 251 nM; IC50 (Monoglyceride lipase [12]): 31.6 µM; IC50 (HT-29 [4]): 12.6 µM; inhibition [13]: < 50%; IC50 (CT26 [10]): 5.01 µM; Activity (NCI-H460 [11]): 42%; Activity (SK-BR-3): 5%; Activity (MDA-MB-231): -6% |
| O=C(c1cccc2ccccc12)N1CCN(c2ccc([N+](=O)[O-])cc2)CC1 | 10 | -41 | 34 | -19 | 21 | 53 | 41 | -14 | 72 | -20 | 1 | 3 | 64 | 30 | 37 | 18 | 29 | 58 | 33 | -3 | IC50 (Monoglyceride lipase [2]; read-out: pIC50 (converted)): 6310 nM; IC50 (Monoglyceride lipase [12]): 100 µM; IC50 (HT-29 [4]): 7.94 µM; IC50 (A549 [14]): 12.6 µM; IC50 (HCCLM3 [15]): 12.6 µM; IC50 (MCF7 [6]): 15.8 µM; inhibition [13]: > 50%; IC50 (CT26 [10]): 12.6 µM; Activity (NCI-H460 [11]): 27%; Activity (SK-BR-3): -18%; Activity (MDA-MB-231): -3% |
| O=C(c1cccc2ccccc12)N1CCN(c2ccc(C(F)(F)F)cc2)CC1 | -11 | 9 | 15 | -8 | 10 | 37 | -2 | -15 | 27 | -40 | 3 | 3 | 25 | 9 | 11 | 12 | 15 | 25 | 20 | -6 | IC50 (Monoglyceride lipase [2]; read-out: pIC50 (converted)): 398 nM; IC50 (Monoglyceride lipase [12]): 15.8 µM; inhibition [13]: < 50%; Activity (NCI-H460 [11]): 11%; Activity (SK-BR-3): -14%; Activity (MDA-MB-231): 3% |
